Where a SMILES comes first, the peptide text is derived from it. The star is where a group is joined. Galloyl = O=C(c1cc(O)c(O)c(O)c1)*
Tests used:
[1] = tested on: J6/JFH-1-infected Huh-7.5 cells; experiment: Necrosis analysis (propidium iodide staining); type: cell-based, human
Experimental: Apoptosis and Necrosis analysis
The ability of GA-Hecate inducing cell death by necrosis and apoptosis was assessed in 48 and 72h post-treatment (p.t) at concentrations: 1.25; 2.5; 5; 10; 20 and 40 μM. For necrosis evaluation, cells were stained using Propidium Iodide at […], which was incubated with the cells 15 minutes prior fixation. Subsequently, cells were fixed using paraformaldehyde 4% in PBS (PFA 4%) for 15 minutes and nuclei stained using DAPI 1 μg/mL for 5 minutes. For apoptosis evaluation, cells were fixed using PFA 4% during 15 minutes, permeabilized using Triton X- 100 (Sigma) 0.1% in PBS and stained using anti-Active Caspase 3 antibody (host: Rabbit) (1:200 in BSA 1% in PBS) (Abcam 13847) for 2h. Then cells were rinsed using PBS and stained using anti-rabbit AlexaFluor 594 (1:500 in BSA 1% PBS) (Thermo Scientific A21207) during 2h. Nuclei were stained using DAPI for 5 minutes. For both assays, cells were counted in 5 randomly chosen fields in duplicate. […]
Figure S2. Cell death mechanisms triggered by GA-Hecate 48h post-treatment in […]
J6/JFH-1- infected Huh-7.5 cells. […]
B) Necrosis assessment.
Necrotic cells were stained using Propidium iodide […], which is able to cross only damaged membranes and reaches the nucleus. PI is represented in red and cell nuclei were counterstained using DAPI (blue). Bars represents the average of 5 fields in duplicate. Ns: non statistically significant. *** Pvalue< 0.001vs 0.00 µM […]
Figure S3. Cell death mechanisms triggered by GA-Hecate 72h post-treatment in […]

[2] = tested on: JFH-1-infected Huh-7.5 cells; experiment: HCV release/assembly evaluation (qPCR intra/extracellular HCV RNA); type: cell-based, hepatitis C virus; conditions: 24 h treatment; 5, 10 and 20 μM, not dose-dependent
Experimental: Figure 6 GA-Hecate effect on HCV Release and infectivity. (A) HCV-infected Huh-7.5 cells were treated for 24 h with GA-Hecate. RNA was isolated and summited to qPCR for HCV 5′ UTR. Intracellular HCV expression was normalized by GAPDH, and extracellular HCV expression was calculated by absolute quantification. The difference between the intra and extracellular RNA expression represents the HCV release. Bars represent triplicate samples of three independent assays. Naringenin (200 μM) was used as a positive control of HCV release inhibition and water was a negative control of HCV release inhibition. ^aP < 0.001 vs Control (−), intracellular. ^bP < 0.001 vs Control (−), extracellular. F = 22.58, df (row factor) = 4. (B) Infectivity. HCV-infected Huh-7.5 cells were treated for 24 h with GA-Hecate, and then the supernatant was collected and used to infect naïve Huh-7.5 cells. The capacity of HCVcc particles to generate a new infection after GA-Hecate treatment is represented by the bars. […]
JFH-1-infected Huh-7.5 cells were used to evaluate the GA-Hecate effect on virus release/assembly. […] After treatment, the intracellular and extracellular RNA content was isolated following the TRIzol reagent protocol and quantified by qPCR of the HCV 5′ UTR region (forward: 5′ CGGGAGAGCCATAGTGG; reverse, 5′ […]; probe: 5′-FAM-[…]-TAMRA-3) using TaqMan® Universal PCR Master Mix (Thermo Scientific, CA, USA).

[3] = Permeabilization of LUVs, carboxyfluorescein release (lipid droplet mimetic); conditions: POPC:Cholesterol 9:1
Source text: (§1) Figure 8 Permeabilization of LUVs. (A) Percentage of carboxyfluorescein release in POPC:POPS (9:1) Post addition of LUVs at different concentrations of Hecate and GA-Hecate. (B) Percentage of carboxyfluorescein release results in POPC:Cholesterol (9:1) LUVs after the addition of different concentrations of Hecate and GA-Hecate. The bars indicate SD.
(§2) Phosphatidylcholine:Cholesterol (POPC:Cholesterol - 9:1; m:m) and phosphatidylcholine:phosphatidylserine (POPC:POPS - 9:1; m:m) vesicles, which mimic lipid droplets and the virus envelope, respectively, were prepared at a concentration of 15 mmol·L^−1. Each mixture was submitted to lipid solubilization in chloroform/methanol (4:1; v:v) and subsequent evaporation by nitrogen gas flow, resulting in the formation of a lipid film. The product evaporated using a vacuum procedure for complete removal of the solvents and then a solution containing the fluorophore carboxyfluorescein (CF; 50 mM) was added. The mixture was warmed up to 60 °C, sonicated and agitated for equal periods for 10 min to allow for the formation of vesicles encapsulated with CF. Following this, the mixture was processed in an extruder machine (Avanti Polar Lipids) to obtain large unilamellar vesicles. The obtained solution was then applied to a size exclusion column with Sephadex G20 resin for separation of the unencapsulated CF. […]

[4] = Permeabilization of LUVs, carboxyfluorescein release (viral envelope/cell membrane mimetic); conditions: POPC:POPS 9:1
Source text: as §1, §2

[5] = peptide 0.1 μM, 1% Triton = 100%, once in triplicate

CC(C)C[C@H](NC(=O)[C@H](C)NC(=O)[C@H](CCCCN)NC(=O)[C@H](CCCCN)NC(=O)[C@H](CC(C)C)NC(=O)[C@H](C)NC(=O)[C@H](CCCCN)NC(=O)[C@H](CCCCN)NC(=O)[C@H](CC(C)C)NC(=O)[C@H](CCCCN)NC(=O)[C@H](CCCCN)NC(=O)[C@H](CC(C)C)NC(=O)[C@H](C)NC(=O)[C@H](CCCCN)NC(=O)[C@H](CCCCN)NC(=O)[C@H](CC(C)C)NC(=O)[C@H](C)NC(=O)[C@H](CCCCN)NC(=O)[C@H](CC(C)C)NC(=O)[C@H](C)NC(=O)[C@H](CC(C)C)NC(=O)[C@H](C)NC(=O)[C@H](Cc1ccccc1)NC(=O)c1cc(O)c(O)c(O)c1)C(N)=O [GA-Hecate] (Galloyl-FALALKALKKALKKLKKALKKAL-NH2)
necrosis ([1]; 20 μM, over the time (48 and 72 h)): about 20% | necrosis ([1]; 40 μM, 48h p.t., propidium iodide): 50% | necrosis ([1]; 40 μM, 72h p.t., propidium iodide): 10% | inhibition of virus release [2]: approximately 50% | permeabilization effect relative to Hecate (fold higher) [3]: approximately 2 fold | permeabilization of LUVs (carboxyfluorescein release) [3, 5]: approximately 70% | interaction capacity relative to Hecate (fold lower) [4]: 2- to 3 fold | permeabilization of LUVs (carboxyfluorescein release) [4, 5]: ~20%

Reference: paper PMC6156508, “GA-Hecate antiviral properties on HCV whole cycle represent a new antiviral class and open the door for the development of broad spectrum antivirals” (Scientific Reports, 2018)
